Test results: patent US20060135613A1, “Carboxamides derivatives” (Bayer Healthcare AG, priority 2002, published 2006)

Tests used:
IP receptor = biological target: T1, IP receptor (Homo sapiens, UniProt P43119); assay: Iloprost-induced cAMP production assay in HEL cells (Assay 2); format: cell-based; details: IP receptor antagonist assay, compounds of about 40 to 90% purity, read-out: Activity grade assay 2
T1 construct: HEL cells were collected with centrifugation and washed with cAMP assay buffer; endogenous in cells; host or cells: HEL 92.1.7 (human erythroleukemia, ATCC)
Protocol: [Iloprost-Induced cAMP Production Assay in HEL Cells] (Assay 2)
HEL cells were collected with centrifugation and washed with cAMP assay buffer (CAB: Hank's balanced salt solution, 17 mM Hepes, 0.1% bovine serum albumin, 1 mM IBMX, 0.4% DMSO, and 1 mM L-ascorbic acid sodium salt (pH 7.4)). Cells were suspended at the density of 2.5×10^5 cells/ml in CAB, and twenty thousand cells in 80 μl aliquot of cell suspension were put in a well of 96 well plate (Falcon). Then, 10 μl of compound solution diluted with 1% DMSO in CAB or buffer alone was added. The plate was incubated at 37° C. for 30 min. Then, another 10 μl containing 100 nM iloprost in CAB or buffer alone was added and further incubated at 37° C. for 30 min. cAMP content in the well was measured by a cAMP ELISA kit (Applied Biosystems).

T1 sequence (P43119 whole entry): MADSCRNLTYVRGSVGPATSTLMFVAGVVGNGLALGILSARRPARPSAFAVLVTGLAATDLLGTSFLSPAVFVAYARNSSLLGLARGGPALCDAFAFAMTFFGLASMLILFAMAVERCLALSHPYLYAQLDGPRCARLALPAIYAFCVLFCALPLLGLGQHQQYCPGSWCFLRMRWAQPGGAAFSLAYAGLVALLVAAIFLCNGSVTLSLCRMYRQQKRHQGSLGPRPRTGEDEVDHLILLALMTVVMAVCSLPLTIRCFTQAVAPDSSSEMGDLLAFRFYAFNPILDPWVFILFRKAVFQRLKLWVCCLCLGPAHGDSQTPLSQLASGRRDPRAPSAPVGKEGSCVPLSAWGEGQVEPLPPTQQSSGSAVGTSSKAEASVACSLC

melting point | IC50 (IP receptor) | Compound
173 to 174 °C | < 100 nM | O=C(CCc1ccc(COc2ccccc2)cc1)N[C@@H](Cc1ccccc1)C(=O)O [Example 2, N-[3-(4-Phenoxymethylphenyl)propionyl]phenylalanine]
205 °C | < 100 nM | O=C(/C=C/c1ccc(COc2ccccc2)cc1)NC(Cc1ccccc1)C(=O)O (centres unmarked) [Example 1, N-(4-phenoxymethylcinnamoyl)phenylalanine]
220 °C | < 100 nM | O=C(/C=C/c1ccc(OCc2ccccc2)cc1)NC(Cc1ccccc1)C(=O)O (centres unmarked) [Example 4, N-(4-Benzyloxycinnamoyl)phenylalanine]
146 °C | < 100 nM | O=C(C#Cc1ccc(COc2ccccc2)cc1)N[C@@H](Cc1ccccc1)C(=O)O [Example 3, N-(4-Phenoxymethylphenylpropioloyl)phenylalanine]
